Experimental data as given in patent US11932634B2 (Gilead Sciences, Inc., priority 2021, dated 2024).

Experiments:
[1] = biological target: T1, human DGKα (Homo sapiens, UniProt P23743); assay: DGKα Biochemical Activity Assay (ADP-Glo);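 also: recombinant enzyme converting diacylglycerol in lipid micelles with ATP, ADP formed detected by luminescence, IC50 from a four-parameter nonlinear fit, geometric mean across experiments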
T1 construct: purchased Carna Biosciences'; inferred from the same paragraph's 'obtained from Carna Biosciences')
T1 sequence (P23743 whole entry): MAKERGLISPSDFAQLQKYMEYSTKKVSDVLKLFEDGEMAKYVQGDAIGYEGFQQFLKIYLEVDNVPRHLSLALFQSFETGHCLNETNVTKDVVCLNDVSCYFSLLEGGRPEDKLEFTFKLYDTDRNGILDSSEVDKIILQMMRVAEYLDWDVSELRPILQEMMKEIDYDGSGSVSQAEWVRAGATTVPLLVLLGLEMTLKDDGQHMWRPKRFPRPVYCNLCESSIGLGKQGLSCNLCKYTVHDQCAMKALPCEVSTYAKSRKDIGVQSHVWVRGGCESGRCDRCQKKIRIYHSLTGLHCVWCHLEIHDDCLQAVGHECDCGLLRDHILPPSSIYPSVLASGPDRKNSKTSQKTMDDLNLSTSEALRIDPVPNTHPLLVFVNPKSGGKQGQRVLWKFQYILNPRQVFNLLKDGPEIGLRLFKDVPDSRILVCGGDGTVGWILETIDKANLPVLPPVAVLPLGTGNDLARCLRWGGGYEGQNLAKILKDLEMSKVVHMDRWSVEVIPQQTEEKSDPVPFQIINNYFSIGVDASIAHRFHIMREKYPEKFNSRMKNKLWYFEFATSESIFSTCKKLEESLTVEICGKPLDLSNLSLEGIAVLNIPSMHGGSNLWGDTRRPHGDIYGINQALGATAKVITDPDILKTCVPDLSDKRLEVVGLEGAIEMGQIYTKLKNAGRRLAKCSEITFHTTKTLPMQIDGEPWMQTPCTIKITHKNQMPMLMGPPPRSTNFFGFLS
Excerpt: Alternatively, the enzymatic activity of human DGKα was monitored in a biochemical assay in the presence or absence of compounds and using micelles containing 18:1 Diacylglycerol (DAG), 16:0-18:1 PS (POPS) and Octylglucoside as substrate. DGKα activity led to conversion of DAG and ATP to Phosphatidic Acid (PA) and ADP. Levels of ADP were monitored by bioluminescence using the ADP-Glo Kinase Assay (Promega) and were indicative of DGKα activity.
Ten nanoliters of test compound dissolved in DMSO at various concentrations were dispensed into a 384-well low volume nonbinding service white plates (Corning #3824) using a Labcyte Echo instrument. Recombinant DGKα Biosciences) in assay buffer (5 μL in 50 mM MOPS [3-(N-morpholino) propanesulfonic acid], pH 7.2; 0.0025% Triton X-100; 1 mM dithiothreitol; 5 mM MgCl2, 200 μM ATP) was added to the compound-containing plate and was incubated for 15 minutes at 25° C. A substrate solution (5 μL in 1.7 mM 1,2-dioleoyl-sn-glycerol [18:1 DAG], 13.5 mM 1-palmitoyl-2-oleoyl-sn-glycero-3-phospho-L-serine [16:0-18:1 PS](POPS), 2 μM CaCl2), 100 mM Octylglucoside (OG), 1 mM DTT) (obtained from Carna Biosciences) diluted in DGK ALPHA assay buffer was then added to start the reaction. Final concentrations were 1 nM DGKα, 100 μM ATP, 1 μM calcium chloride, 0.85 mM 1,2-dioleoyl-sn-glycerol (18:1 DAG), 6.75 mM 1-palmitoyl-2-oleoyl-sn-glycero-3-phospho-L-serine (16:0-18:1 PS) (POPS), 1 μM CaCl2), 50 mM Octylglucoside (OG) and 5 mM MgCl2. The reaction mixture was incubated at 25° C. for 1 hour. ADP-Glo Reagent (10 μL, 10 mM Mg added) provided by the kit was added to each well and incubated at 25° C. for 40 minutes. Then, 20 μL of Kinase Detection Reagent was added and incubated at 25° C. for 40 minutes. Luciferase activity of each well was measured via luminescence on an Envision plate reader (PerkinElmer).
Least squares curve fittings were performed using a four-parameter variable slope nonlinear regression model. […] IC50 values from multiple experiments were averaged by geometric mean and the standard deviation was calculated.

[2] = test system: Jurkat NFκB-luciferase cells; assay: Jurkat NFκB-Luciferase Assay; type: cell-based; settings: Homo sapiens; Jurkat NFκB-luciferase cells activated with anti-CD3 antibody (OKT3), 2.5 hrs at 37° C., One-Glo Ex; geometric mean; read-out: DGK NFKb Luciferase EC50;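 also: bioluminescence read-out normalized to DMSO basal activation and to maximum enhancement at 1 µM compound, rising signal indicating stronger T-cell activation through DGKα inhibition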

SMILES	IC50 [1]	EC50 [2]
[2H]C([2H])([2H])n1c(=O)nc(N2CCOCc3c(C#CC(C)(C)C#N)cccc32)c2c(F)c(F)ccc21 [Example 98, 4-[1-[5,6-difluoro-2-oxo-1-(trideuteriomethyl)quinazolin-4-yl]-3,5-dihydro-2H-4,1-benzoxazepin-6-yl]-2,2-dimethyl-but-3-ynenitrile]	2.83 nM	3.29 nM
O=c1nc(N(CC(F)F)c2cc(F)cc(-c3ccc(C(F)F)nc3)c2)c2c(F)cccc2[nH]1 [Example 18, 4-[N-(2,2-difluoroethyl)-3-[6-(difluoromethyl)-3-pyridyl]-5-fluoro-anilino]-5-fluoro-1H-quinazolin-2-one]	54.4 nM	2.63 nM
CC(C)(C#Cc1cccc2c1COCCN2c1nc(=O)[nH]c2cccc(F)c12)C(F)(F)F [Example 92, 5-fluoro-4-(6-(4,4,4-trifluoro-3,3-dimethylbut-1-yn-1-yl)-2,3-dihydrobenzo[e][1,4]oxazepin-1(5H)-yl)quinazolin-2(1H)-one]	37.4 nM	1.66 nM
O=c1nc(N(CC(F)(F)F)c2cc(F)cc(C#CC3(C(F)(F)F)CC3)c2)c2ccc(Cl)cc2[nH]1 [Example 29, 7-chloro-4-[3-fluoro-N-(2,2,2-trifluoroethyl)-5-[2-[1-(trifluoromethyl)cyclopropyl]ethynyl]anilino]-1H-quinazolin-2-one]	849 nM	1.88 nM
O=c1nc(N(CC(F)F)c2cncc(C#CC3(C(F)(F)F)CC3)c2)c2cc(F)ccc2[nH]1 [Example 45, 4-((2,2-difluoroethyl)(5-((1-(trifluoromethyl)cyclopropyl)ethynyl)pyridin-3-yl)amino)-6-fluoroquinazolin-2(1H)-one]	67.4 nM	6.18 nM
[2H]C([2H])([2H])n1c(=O)nc(N(CC(F)F)c2ccnc(C#Cc3cnn(C)c3)c2)c2c(F)c(F)ccc21 [Example 120, 4-[2,2-difluoroethyl-[2-[2-(1-methylpyrazol-4-yl)ethynyl]-4-pyridyl]amino]-5,6-difluoro-1-(trideuteriomethyl)quinazolin-2-one]	5.77 nM	34.9 nM
[2H]C([2H])([2H])n1c(=O)nc(N2CCCc3c(C#CC4(C)CC4)cncc32)c2c(F)c(F)ccc21 [Example 159, 5,6-difluoro-1-(methyl-d3)-4-(5-((1-methylcyclopropyl)ethynyl)-3,4-dihydro-1,7-naphthyridin-1(2H)-yl)quinazolin-2(1H)-one]	2.03 nM	0.685 nM
CN(c1cccc(-c2ccc(N3CCCC3)nc2)c1)c1nc(=O)n(C)c2cc(Cl)ccc12 [Example 7, 7-chloro-1-methyl-4-[N-methyl-3-(6-pyrrolidin-1-yl-3-pyridyl)anilino]quinazolin-2-one]	17.9 nM	0.675 nM
CC(C)(C#Cc1nccc(N(CC(F)F)c2nc(=O)[nH]c3cccc(F)c23)c1F)C(F)(F)F [Example 125, 4-[2,2-difluoroethyl-[3-fluoro-2-(4,4,4-trifluoro-3,3-dimethyl-but-1-ynyl)-4-pyridyl]amino]-5-fluoro-1H-quinazolin-2-one]	40.8 nM	2.18 nM
CC(C)(O)C#Cc1cccc2c1CCCN2c1nc(=O)[nH]c2cccc(F)c12 [Example 43, 5-fluoro-4-[5-(3-hydroxy-3-methyl-but-1-ynyl)-3,4-dihydro-2H-quinolin-1-yl]-1H-quinazolin-2-one]	1.84 nM	2.53 nM
CN(c1cccc(-c2ccc(N3CCCS3(=O)=O)cc2)c1)c1nc(=O)n(C)c2cc(Cl)ccc12 [Example 10, 7-chloro-4-[3-[4-(1,1-dioxo-1,2-thiazolidin-2-yl)phenyl]-N-methyl-anilino]-1-methyl-quinazolin-2-one]	14 nM	1.51 nM
[2H]C([2H])([2H])n1c(=O)nc(N(CC(F)F)c2ccnc(C#CC(C)(C)O)c2F)c2c(F)cccc21 [Example 128, 4-[2,2-difluoroethyl-[3-fluoro-2-(3-hydroxy-3-methyl-but-1-ynyl)-4-pyridyl]amino]-5-fluoro-1-(trideuteriomethyl)quinazolin-2-one]	7.36 nM	41.2 nM
[2H]C([2H])([2H])n1c(=O)nc(N(CC(F)F)c2ccnc(C#CC(C)(C)C#N)c2)c2c(F)c(F)ccc21 [Example 79, 4-[4-[2,2-difluoroethyl-[5,6-difluoro-2-oxo-1-(trideuteriomethyl)quinazolin-4-yl]amino]-2-pyridyl]-2,2-dimethyl-but-3-ynenitrile]	2.95 nM	11.3 nM
[2H]C([2H])([2H])n1c(=O)nc(N2CCOCc3c(C#CC4CCCN4C)cccc32)c2c(F)cccc21 (stereo not shown) [Example 167, 5-fluoro-4-[6-[2-(1-methylpyrrolidin-2-yl)ethynyl]-3,5-dihydro-2H-4,1-benzoxazepin-1-yl]-1-(trideuteriomethyl)quinazolin-2-one]	18.5 nM	11 nM
CN(c1cccc(C#CC(C)(C)O)c1)c1nc(=O)[nH]c2cc(Cl)ccc12 [Example 3, 7-chloro-4-[3-(3-hydroxy-3-methyl-but-1-ynyl)-N-methyl-anilino]-1H-quinazolin-2-one]	96.3 nM	10.7 nM
[2H]C([2H])([2H])n1c(=O)nc(N2CCCc3c(C#CC4(C(F)(F)F)CC4)cccc32)c2c(F)cccc21 [Example 21, 5-fluoro-1-(trideuteriomethyl)-4-[5-[2-[1-(trifluoromethyl)cyclopropyl]ethynyl]-3,4-dihydro-2H-quinolin-1-yl]quinazolin-2-one]	11.3 nM	0.232 nM
CCC(O)(C#Cc1cccc2c1CCCN2c1nc(=O)[nH]c2cccc(F)c12)CC [Example 57, 4-[5-(3-ethyl-3-hydroxy-pent-1-ynyl)-3,4-dihydro-2H-quinolin-1-yl]-5-fluoro-1H-quinazolin-2-one]	150 nM	9.99 nM
[2H]C([2H])([2H])n1c(=O)nc(N2CCCc3c(C#CC(C)(C)O)cccc32)c2c(Cl)cccc21 [Example 130, 5-chloro-4-[5-(3-hydroxy-3-methyl-but-1-ynyl)-3,4-dihydro-2H-quinolin-1-yl]-1-(trideuteriomethyl)quinazolin-2-one]	5.49 nM	16.8 nM
CC(C)(O)CC#Cc1cccc2c1CCCN2c1nc(=O)[nH]c2cccc(F)c12 [Example 54, 5-fluoro-4-[5-(4-hydroxy-4-methyl-pent-1-ynyl)-3,4-dihydro-2H-quinolin-1-yl]-M-quinazolin-2-one]	23.6 nM	8.22 nM
[2H]C([2H])([2H])n1c(=O)nc(N(CC(F)F)c2ccnc(C#CC3(C(F)(F)F)CC3)c2)c2c(F)cccc21 [Example 135, 4-[2,2-difluoroethyl-[2-[2-[1-(trifluoromethyl)cyclopropyl]ethynyl]-4-pyridyl]amino]-5-fluoro-1-(trideuteriomethyl)quinazolin-2-one]	10.6 nM	2.23 nM
O=c1nc(N(CC(F)F)c2cccc(C#CC3(C(F)(F)F)CC3)n2)c2cc(F)ccc2[nH]1 [Example 46, 4-((2,2-difluoroethyl)(6-((1-(trifluoromethyl)cyclopropyl)ethynyl)pyridin-2-yl)amino)-6-fluoroquinazolin-2(1H)-one]	86.9 nM	15.3 nM
CC(C)(C#N)C#Cc1cccc2c1CCCCN2c1nc(=O)[nH]c2cccc(F)c12 [Example 143, 4-[1-(5-fluoro-2-oxo-1H-quinazolin-4-yl)-2,3,4,5-tetrahydro-1-benzazepin-6-yl]-2,2-dimethyl-but-3-ynenitrile]	18.4 nM	1.75 nM
O=c1nc(N2CCCc3c2ccnc3C#CC2(C(F)(F)F)CC2)c2c(F)c(F)ccc2[nH]1 [Example 116, 5,6-difluoro-4-[5-[2-[1-(trifluoromethyl)cyclopropyl]ethynyl]-3,4-dihydro-2H-1,6-naphthyridin-1-yl]-1H-quinazolin-2-one]	4.07 nM	0.945 nM
CN(c1cccc(C#CC2(C(F)(F)F)CC2)c1)c1nc(=O)[nH]c2cc(Cl)ccc12 [Example 5, 7-chloro-4-[N-methyl-3-[2-[1-(trifluoromethyl)cyclopropyl]ethynyl]anilino]-1H-quinazolin-2-one]	53.1 nM	1.01 nM
CC(C)(C#N)C#Cc1cccc2c1COCCN2c1nc(=O)[nH]c2cccc(F)c12 [Example 110, 4-(1-(5-fluoro-2-oxo-1,2-dihydroquinazolin-4-yl)-1,2,3,5-tetrahydrobenzo[e][1,4]oxazepin-6-yl)-2,2-dimethylbut-3-ynenitrile]	6.52 nM	2.82 nM
O=c1nc(N(CC(F)F)c2cc(F)cc(C#CC3(C(F)(F)F)CC3)c2)c2ccc(Cl)cc2n1CCO [Example 33, 7-chloro-4-[N-(2,2-difluoroethyl)-3-fluoro-5-[2-[1-(trifluoromethyl)cyclopropyl]ethynyl]anilino]-1-(2-hydroxyethyl)quinazolin-2-one]	284 nM	3.65 nM
[2H]C([2H])([2H])n1c(=O)nc(N(CC(F)F)c2ccnc(C#Cc3cncn3C)c2)c2c(F)cccc21 [Example 136, 4-[2,2-difluoroethyl-[2-[2-(3-methylimidazol-4-yl)ethynyl]-4-pyridyl]amino]-5-fluoro-1-(trideuteriomethyl)quinazolin-2-one]	26.5 nM	84.4 nM
[2H]C([2H])([2H])n1c(=O)nc(N2CCOCc3c(C#CC45CC(CN4C)C5)cccc32)c2c(F)cccc21 [Example 174, 5-fluoro-4-[6-[2-(2-methyl-2-azabicyclo[2.1.1]hexan-1-yl)ethynyl]-3,5-dihydro-2H-4,1-benzoxazepin-1-yl]-1-(trideuteriomethyl)quinazolin-2-one]	66.4 nM	32.9 nM
CC(F)(F)C1(C#Cc2nccc3c2CCCN3c2nc(=O)[nH]c3ccc(F)c(F)c23)CC1 [Example 134, 4-[5-[2-[1-(1,1-difluoroethyl)cyclopropyl]ethynyl]-3,4-dihydro-2H-1,6-naphthyridin-1-yl]-5,6-difluoro-1H-quinazolin-2-one]	14.4 nM	2.52 nM
